The values below are quoted from earlier work in article PMC7395068, “The evolution of strategies to minimise the risk of human drug-induced liver injury (DILI) in drug discovery and development” (Archives of Toxicology, 2020).

For one data set, the system named is human hepatocytes. The note with it: In vitro Assay; ref Xu 2008; cited from earlier work.
For data set [1] the following is noted: cited from earlier work.
Another data set has as its system RMPCC's. The conditions noted are these: In vitro Assay; ref Khetani 2012; cited from earlier work.
For a further data set, the system named is PHH spheroids. The note with it: In vitro Assay; ref Vorrink 2018; cited from earlier work.
Another data set deals with hu-MPCC. The note with it: In vitro Assay; ref Khetani 2012; cited from earlier work.
For data set [2] the following is noted: ref Chen 2016; cited from earlier work.

Structures are written as SMILES. Counter-ions that a name gives are not always drawn. Like-named read-outs stand apart in the source and are kept apart here.

Regarding `CNCCc1ccccn1` [betahistine], the “Structural based (HCI)” value in the data set with human hepatocytes is listed as “-VE”. The “In vivo DILI” value in data set [1] (ref Khetani 2012), in data set [1] (ref Vorrink 2018) and in data set [1] (ref Xu 2008) was “+VE” each time. Also, the “RMPCC's” value in the data set on RMPCC's is reported as “-VE”. In the data set with PHH spheroids, the “hLiMTs ATP <20 x Cmax” value is “-VE”. Further, in the data set with hu-MPCC, the “HMPCC's” value is “-VE”.

On to `CCN(CC)CCOc1ccc(C(=C(Cl)c2ccccc2)c2ccccc2)cc1` [clomiphene citrate], for which, in the data set on human hepatocytes, the “Structural based (HCI)” value was “-VE”. The “In vivo DILI” value in data set [1] (ref Khetani 2012) and in data set [1] (ref Xu 2008) was “+VE” throughout. Besides, the “RMPCC's” value with RMPCC's is given as “-VE”. Further, the “HMPCC's” value in the data set on hu-MPCC is reported as “-VE”.

For the molecule `CC(=O)O[C@]1(C(C)=O)CC[C@H]2[C@@H]3C=C(Cl)C4=CC(=O)[C@@H]5C[C@@H]5[C@]4(C)[C@H]3CC[C@@]21C` [cyproterone acetate], the “Structural based (HCI)” value with human hepatocytes was “-VE”. Also, the “In vivo DILI” value in data set [1] ([…]), in data set [1] (ref Khetani 2012) and in data set [1] (ref Xu 2008) was “+VE” throughout. Besides, the “RMPCC's” value in the data set with RMPCC's is “+VE”. In addition, the “HMPCC's” value in the data set with hu-MPCC was “+VE”.

Consider `COc1ccc2c(c1)[C@]13CCCC[C@@H]1[C@H](C2)N(C)CC3` [dextromethorphan], for which, in the data set on human hepatocytes, the “Structural based (HCI)” value is reported as “-VE”. For the same molecule, in data set [1] (ref Khetani 2012), the “In vivo DILI” value is recorded as “-VE”. The “In vivo DILI” value in data set [1] (ref Xu 2008) is “-VE”. Moreover, in the data set on RMPCC's, the “RMPCC's” value is listed as “-VE”. Besides, in data set [2], the “DILI +VE (5-8), DILI -VE (-4)” value is “-VE” and the DILI severity category entry is “vNo-DILI-Concern”. Further, the “HMPCC's” value with hu-MPCC was “-VE”.
